{"source": "patent US5726181A", "about": "“Formulations and compositions of poorly water soluble camptothecin derivatives” (BioNumerik Pharmaceuticals, Inc., priority 1995, dated 1998)", "key": {"[1]": {"conditions": "water; cited from earlier work"}, "[2]": {"experiment": "Lactone form / chemical stability in formulation", "type": "physicochemical"}, "[3]": {"conditions": "cited from earlier work"}, "[4]": {"tested_on": "human patients", "conditions": "cited from earlier work"}, "[5]": {"tested_on": "human patients", "conditions": "cited from earlier work", "remark": "listed apart in the source"}, "[6]": {"tested_on": "malignant melanoma", "conditions": "cited from earlier work"}, "[7]": {"tested_on": "human patients with cancer", "conditions": "Phase I and Phase II human trials; cited from earlier work"}, "[8]": {"tested_on": "advanced gastrointestinal cancer", "conditions": "cited from earlier work"}, "[9]": {"conditions": "oral vs intravenous solution; cited from earlier work"}, "[10]": {"conditions": "90-360 mg/m^2 every 2 weeks, fifteen patients"}, "[11]": {"conditions": "15 mg/m^2 × 5, 9 patients treated"}, "[12]": {"conditions": "17 mg/m^2 × 5, 5 patients treated"}, "[13]": {"conditions": "20 mg/m^2 × 5, 10 patients treated"}, "[14]": {"conditions": "5-Day course (27 patients), 4 wks"}, "[15]": {"conditions": "5-Day course (27 patients), 8 wks"}, "[16]": {"conditions": "5-Day course (27 patients), 12 wks"}, "[17]": {"conditions": "single dose 110 mg/m^2, 2 patients treated"}, "[18]": {"conditions": "single dose 120 mg/m^2, 7 patients treated"}, "[19]": {"conditions": "single dose 180 mg/m^2, 9 patients treated"}, "[20]": {"conditions": "single-dose method (34 patients), 3 wks"}, "[21]": {"conditions": "single-dose method (34 patients), 6 wks"}, "[22]": {"conditions": "single-dose method (34 patients), 9 wks"}, "[23]": {"conditions": "single-dose method (34 patients), 12 wks"}}, "note": "“Also recorded” adds a separate entry of the source. Like-named read-outs stand apart in the source and are kept apart here."}
{"smiles": "CCc1c2c(nc3ccccc13)-c1cc3c(c(=O)n1C2)COC(=O)[C@]3(O)CC", "note": "[7-ethyl camptothecin]", "values": [{"measurement": "Water solubility", "setting": "[1]", "result": "less than 5 micrograms per milliliter of water"}]}
{"smiles": "CCc1c2c(nc3ccc(O)cc13)-c1cc3c(c(=O)n1C2)COC(=O)[C@]3(O)CC", "note": "[7-ethyl-10-hydroxy camptothecin]", "values": [{"measurement": "Water solubility", "setting": "[1]", "result": "less than 5 micrograms per milliliter of water"}]}
{"smiles": "CCC1(O)C(=O)OCc2c1cc1n(c2=O)Cc2cc3cc4c(cc3nc2-1)OCO4", "note": "(stereo not shown) [10,11-Methylenedioxy camptothecin, 10,11-methylenedioxy camptothecin]", "values": [{"measurement": "Water solubility", "setting": "[1]", "result": "less than 5 micrograms per milliliter of water"}]}
{"smiles": "CCC1(O)C(=O)OCc2c1cc1n(c2=O)Cc2cc3cc4c(cc3nc2-1)OCCO4", "note": "(stereo not shown) [10,11-ethylenedioxy-camptothecin, 10,11-ethylenedioxy camptothecin]", "values": [{"measurement": "Water solubility", "setting": "[1]", "result": "less than 5 micrograms per milliliter of water"}]}
{"smiles": "CN1CCCC1=O", "note": "[NMP, N-methyl-2-pyrrolidinone]", "values": [{"measurement": "Chemical reactivity of NMP with HLCD", "setting": "[2]", "result": "inert with respect to undesirable chemical reactions with HLCD; also recorded: chemically inert with respect to poorly water soluble camptothecins"}]}
{"smiles": "CC[C@@](O)(C(=O)O)c1cc2n(c(=O)c1CO)Cc1cc3ccccc3nc1-2", "note": "[SCPT]", "values": [{"measurement": "Plasma camptothecin levels, relation to dose", "setting": "[3]; 24 hours after SCPT, once daily×5, 6.5-20 mg/m^2/day", "result": "plasma camptothecin levels have little relation to the dose given"}, {"measurement": "Severe toxic effects", "setting": "[3]; patients with obvious renal disease excluded", "result": "Severe toxic effects including cystitis occurred"}, {"measurement": "Bladder toxicity, dose limiting", "setting": "[4]; 20 to 30 mg/m^2", "result": "dose limiting in three patients"}, {"measurement": "Bladder toxicity, additional patients", "setting": "[4]; 44 and 30 mg/m^2", "result": "two additional patients"}, {"measurement": "Leukopenia, incidence", "setting": "[4]; daily treatment, total dose of 100 mg/m^2", "result": "four of six patients"}, {"measurement": "Leukopenia, duration", "setting": "[4]; daily vs weekly treatment", "result": "more prolonged after daily treatment than after weekly treatment"}, {"measurement": "Leukopenia", "setting": "[4]; dose-limiting toxic effect", "result": "Reversible leukopenia was the major dose-limiting toxic effect"}, {"measurement": "Clinical benefit", "setting": "[4]; eight patients with measurable disease, 5-day courses at dose levels associated with toxicity", "result": "No clinical benefit was observed"}, {"measurement": "Clinical responses", "setting": "[4]; weekly courses, evaluable patients", "result": "two of ten patients"}, {"measurement": "Mean urine recovery of camptothecin, excluding patients with impaired urinary excretion", "setting": "[5]; 5 patients with impaired urinary excretion excluded, i.v., 2880 min", "result": 22.8, "unit": "%"}, {"measurement": "Urinary appearance of unmetabolized camptothecin", "setting": "[5]; after i.v. drug administration", "result": "unmetabolized camptothecin in high concentrations rapidly appeared in the urine"}, {"measurement": "Mean urine recovery of camptothecin", "setting": "[5]; first 48 hours, i.v.", "result": 17.4, "unit": "%"}, {"measurement": "Urine recovery of camptothecin (range)", "setting": "[5]; first 48 hours, i.v.", "result": "3.6-38.9%"}, {"measurement": "Time course of urinary drug excretion", "setting": "[5]; i.v.", "result": "most of the drug excretion occurring in the initial 12 hours"}, {"measurement": "Sterile hemorrhagic cystitis", "setting": "[5]; moderately dehydrated patients", "result": 3, "unit": "patients"}, {"measurement": "50% or greater decrease in tumor diameter", "setting": "[6]; [10]", "result": "None of the patients had a 50% or greater decrease in tumor diameter"}, {"measurement": "Transient tumor regression", "setting": "[6]; [10]", "result": "Less pronounced transient tumor regression was noted in three patients"}, {"measurement": "Disease in remaining patients", "setting": "[6]; 90-360 mg/m^2 every 2 weeks", "result": "no change or progression in their disease"}, {"measurement": "Alopecia", "setting": "[6]; fifteen patients", "result": 8, "unit": "patients"}, {"measurement": "Diarrhea", "setting": "[6]; fifteen patients", "result": 3, "unit": "patients"}, {"measurement": "Hemorrhagic cystitis", "setting": "[6]; fifteen patients", "result": 1, "unit": "patients"}, {"measurement": "Myelosuppression", "setting": "[6]; fifteen patients", "result": 11, "unit": "patients"}, {"measurement": "Nausea and vomiting", "setting": "[6]; fifteen patients", "result": 9, "unit": "patients"}, {"measurement": "Antitumor activity in early trials", "setting": "[7]", "result": "lack of consistent antitumor activity"}, {"measurement": "Toxicity in early trials", "setting": "[7]", "result": "unpredictable and severe myelosuppression,gastrointestinal toxicity, hemorrhagic cystitis, and alopecia"}, {"measurement": "No. of patients with Cystitis", "setting": "[8]; 11 mg/m^2 × 5, 2 patients treated", "result": 1, "unit": "patients"}, {"measurement": "No. of patients with Cystitis", "setting": "[8]; [11]", "result": 4, "unit": "patients"}, {"measurement": "No. of patients with Diarrhea", "setting": "[8]; [11]", "result": 1, "unit": "patients"}, {"measurement": "No. of patients with Cystitis", "setting": "[8]; [12]", "result": 2, "unit": "patients"}, {"measurement": "No. of patients with Diarrhea", "setting": "[8]; [12]", "result": 4, "unit": "patients"}, {"measurement": "No. of patients with Cystitis", "setting": "[8]; [13]", "result": 6, "unit": "patients"}, {"measurement": "No. of patients with Diarrhea", "setting": "[8]; [13]", "result": 4, "unit": "patients"}, {"measurement": "No. of patients with Diarrhea", "setting": "[8]; 22 mg/m^2 × 5, 1 patient treated", "result": 1, "unit": "patients"}, {"measurement": "Improvement at 3 months", "setting": "[8]; 3 months, 61 patients", "result": "none showed improvement at 3 months"}, {"measurement": "Objective Responses: Improved", "setting": "[8]; [14]", "result": 1, "unit": "patients"}, {"measurement": "Objective Responses: Stable", "setting": "[8]; [14]", "result": 12, "unit": "patients"}, {"measurement": "Objective Responses: Worse", "setting": "[8]; [14]", "result": 14, "unit": "patients"}, {"measurement": "Objective Responses: Stable", "setting": "[8]; [15]", "result": 7, "unit": "patients"}, {"measurement": "Objective Responses: Worse", "setting": "[8]; [15]", "result": 20, "unit": "patients"}, {"measurement": "Objective Responses: Stable", "setting": "[8]; [16]", "result": 6, "unit": "patients"}, {"measurement": "Objective Responses: Worse", "setting": "[8]; [16]", "result": 21, "unit": "patients"}, {"measurement": "Cystitis (% of 27 patients)", "setting": "[8]; 5-Day course, P < 0.05", "result": 48, "unit": "%"}, {"measurement": "Cystitis (% of 34 patients)", "setting": "[8]; Single dose", "result": 24, "unit": "%"}, {"measurement": "Partial objective improvement", "setting": "[8]; after 2 months (8 or 9 weeks), 61 patients", "result": "only two of their 61 patients"}, {"measurement": "Patients with 25%-50% response", "setting": "[8]; at 3 wks only", "result": 3, "unit": "patients"}, {"measurement": "Diarrhea, severity and persistence", "setting": "[8]; higher doses", "result": "could be quite severe to the point of fecal incontinence and persistent for as long as 4 weeks"}, {"measurement": "Onset of cystitis after treatment", "setting": "[8]; in vivo", "result": "7 to 10", "unit": "days"}, {"measurement": "Severity of toxicity by schedule", "setting": "[8]; prolonged (5-day) vs single-dose schedule at a given total dose", "result": "more prolonged schedule produced more severe toxicity at a given total dose level"}, {"measurement": "No. of patients with Cystitis", "setting": "[8]; single dose 90 mg/m^2, 10 patients treated", "result": 1, "unit": "patients"}, {"measurement": "No. of patients with Cystitis", "setting": "[8]; single dose 100 mg/m^2, 6 patients treated", "result": 2, "unit": "patients"}, {"measurement": "No. of patients with Cystitis", "setting": "[8]; [17]", "result": 1, "unit": "patients"}, {"measurement": "No. of patients with Diarrhea", "setting": "[8]; [17]", "result": 1, "unit": "patients"}, {"measurement": "No. of patients with Cystitis", "setting": "[8]; [18]", "result": 2, "unit": "patients"}, {"measurement": "No. of patients with Diarrhea", "setting": "[8]; [18]", "result": 4, "unit": "patients"}, {"measurement": "No. of patients with Cystitis", "setting": "[8]; [19]", "result": 3, "unit": "patients"}, {"measurement": "No. of patients with Diarrhea", "setting": "[8]; [19]", "result": 2, "unit": "patients"}, {"measurement": "Objective Responses: Improved", "setting": "[8]; [20]", "result": 4, "unit": "patients"}, {"measurement": "Objective Responses: Stable", "setting": "[8]; [20]", "result": 17, "unit": "patients"}, {"measurement": "Objective Responses: Worse", "setting": "[8]; [20]", "result": 13, "unit": "patients"}, {"measurement": "Objective Responses: Improved", "setting": "[8]; [21]", "result": 2, "unit": "patients"}, {"measurement": "Objective Responses: Stable", "setting": "[8]; [21]", "result": 1, "unit": "i"}, {"measurement": "Objective Responses: Worse", "setting": "[8]; [21]", "result": 21, "unit": "patients"}, {"measurement": "Objective Responses: Improved", "setting": "[8]; [22]", "result": 2, "unit": "patients"}, {"measurement": "Objective Responses: Stable", "setting": "[8]; [22]", "result": 8, "unit": "patients"}, {"measurement": "Objective Responses: Worse", "setting": "[8]; [22]", "result": 24, "unit": "patients"}, {"measurement": "Objective Responses: Stable", "setting": "[8]; [23]", "result": 6, "unit": "patients"}, {"measurement": "Objective Responses: Worse", "setting": "[8]; [23]", "result": 28, "unit": "patients"}]}
{"smiles": "COc1cc([C@@H]2c3cc4c(cc3[C@@H](O[C@@H]3O[C@@H]5CO[C@@H](C)O[C@H]5[C@H](O)[C@H]3O)[C@H]3COC(=O)[C@H]23)OCO4)cc(OC)c1O", "note": "[etoposide]", "values": [{"measurement": "Bioavailability following oral administration", "setting": "[9]", "result": "substantially equivalent to that achieved by intravenous administration"}]}
